Assay results reported in patent US9067974B2, “Polymyxin derivatives and uses thereof” (priority 2006, dated 2015).
Where two headings read alike, the source gives them in different places.

What was measured:
[1] = Two-week intravenous toxicity study in young rats; format: in vivo
Protocol: Toxicity in young rats (weighing approx. 150 g in the beginning of the study) was determined by administering doses (1, 2, 4, 8, 16, and 32 mg/kg per day) of NAB7061 as well as the control compound polymyxin B intravenously twice (2) a day for two weeks. A group of ten (10) rats was studied for each dosis regimen. Clinical observations were made daily, the body weight measured twice weekly, and the food consumption twice weekly. In the end of week 2, all animals were sacrificed.
Histopathology of kidneys was performed for each animals and histopathology of all tissues was performed in three high-dose groups receiving NAB7061.

[2] = system: Acinetobacter baumannii ATCC 19606; assay: Well diffusion growth inhibition on LB agar plates (direct antibacterial activity); format: cell-based; conditions: A. baumannii ATCC 19606
Method in brief: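 Direct antibacterial activity against Acinetobacter baumannii ATCC 19606 was measured by agar well diffusion on LB plates. The plates were flooded with a suspension of approx. 10^8 cells/ml in 0.9% NaCl, and the excess was removed. Once the surface dried, five wells of 2 mm diameter were drilled per plate. The wells were filled with test compound dissolved in 0.9% NaCl, with plain 0.9% NaCl as control. After 18 h at 37° C., inhibition zone diameters were measured and converted to growth inhibition areas in square mm.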

[3] = system: Pseudomonas aeruginosa ATCC 27853; assay: as above; format: cell-based; conditions: Ps. aeruginosa ATCC 27853
Method in brief: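 Pseudomonas aeruginosa ATCC 27853 was tested for direct antibacterial susceptibility by agar well diffusion. A suspension of about 10^8 cells/ml in 0.9% NaCl was spread over LB agar and the excess removed. After drying, 2 mm wells were drilled and filled with compound dissolved in 0.9% NaCl, with NaCl alone as control. Plates were incubated 18 h at 37° C, and inhibition zone diameters were measured and converted to areas in square mm.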

[4] = biological target: brush-border membrane (BBM) from the renal cortex; assay: Inhibition of [3H] gentamycin binding to brush-border membrane vesicles; set-up: species or system rats; conditions: 20 μM [3H] gentamycin; 60 min at 4° C.; rat renal cortex BBM vesicles
Source text: The binding of the compounds according to this invention to isolated brush-border membrane (BBM) from the renal cortex can be measured indirectly by measuring their ability to inhibit the binding of radiolabelled gentamycin to BBM. Accordingly, the compounds according to this invention that have less affinity to BBM than for example polymyxin B inhibit the binding of radiolabelled gentamycin to a lesser degree than does polymyxin B.
BBM was isolated from the renal cortex of male albino rats by using the Mg^2+/EGTA precipitation technique as described by Nagai et al. (2006). The binding of gentamycin was measured, according to the method described by Nagai et al. (2006) by incubating BBM vesicles (20 μl) in 10 mM HEPES (pH 7.5) with 100 mM mannitol in the presence of 20 μM [^3H] gentamycin (Amersham Biosciences Inc., Buckinghamshire, U.K.) with or without the compound to be tested or a positive control. After an incubation of 60 min at 4° C., 1 ml of ice-cold buffer described above was added, and the mixture was filtered through a Millipore filter (0.45 μm; HAWP). The filter was washed with the buffer and the radioactivity remaining in the filter was measured by using a liquid scintillation counter. The IC50 values were determined as in Nagai et al. (2006) using the Hill equation.

[5] = system: E. coli IH3080 (K1:O18); assay: Well diffusion growth inhibition on LB agar plates (direct antibacterial activity); format: cell-based, Escherichia coli
Method in brief: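 Growth inhibition of encapsulated E. coli IH3080 (K1:O18) was measured by well diffusion on LB agar plates. A suspension of about 10^8 cells/ml in 0.9% NaCl, made from an overnight LB agar culture, was spread over the plates and the excess removed. Once dry, five 2 mm wells were drilled per plate and test solutions added, with 0.9% NaCl as control. After 18 h at 37° C, inhibition zone diameters were measured and converted to surface areas in square mm.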

[6] = system: E. coli IH3080; assay: Sensitization to rifampin: well diffusion growth inhibition on LB plates containing rifampin; format: cell-based, Escherichia coli; conditions: 4 μg of compound
[7] = system: Ac. baumannii F264; assay: E-test MIC of antibiotics on Mueller-Hinton agar with or without NAB7061 (4 μg/ml); sensitization factor = MIC ratio absence/presence; format: cell-based; conditions: Acinetobacter baumannii, NAB 7061 0 μg/ml, A. baumannii F264
Protocol: (§1) MICs were determined by using E-strips (Biodisk Ltd., Solna, Sweden) according to the manufacturer's instructions.
(§2) The strains originated from ATCC (11 strains), CCUG (11 strains), and NCTC (The National Collection of Type Cultures, Colindale, U.K.; 2 strains). Eight strains (the F-strains) were purchased from Mobidiag Ltd., Helsinki, Finland. The source of E. coli IH3080 has been given in Example 2. Sensitization factor was defined as in Example 7.
(§3) Sensitization factor was defined as in Example 7. NAB7061 sensitized both carbapenem-resistant strains (F263, F264) to both carbapenems by a factor ≧4.

[8] = system: Ac. baumannii ATCC19606; assay: as above; format: cell-based; conditions: Acinetobacter baumannii, NAB 7061 0 μg/ml, A. baumannii ATCC19606
Protocol: as §1, §2, §3

[9] = system: Ac. baumannii F263; assay: as above; format: cell-based; conditions: Acinetobacter baumannii, NAB 7061 0 μg/ml, A. baumannii F263
Protocol: as §1, §2, §3

[10] = system: E. coli; conditions: Sakura et al. 2004; cited from earlier work

With “MO(H)A-XTX-cy[XXFLXXT], SEQ ID NO:1; commercially available polymyxin B is a mixture [reference compound]” the “Rise of blood urea nitrogen (BUN) versus control or low dose group” value ([1]; rat, in vivo, 16 mg/kg/day) was 15%, the “Lowest dose that negatively influenced the body weight gain” value ([1]; rat, in vivo, iv) was 1 mg/kg per day and the Mortality ([1]; rats, 32 mg/kg per day intravenously for two weeks) was 100%. The “Antibacterial activity (growth inhibition area around a well)” value ([2]; 4 μg per well) was 113 square millimeters, the “Antibacterial activity (growth inhibition area around a well)” value ([2]; 10 μg per well) was 154 square millimeters and the “Antibacterial activity (growth inhibition area around a well)” value ([3]; 4 μg per well) was 95 square millimeters. For the same compound, the “Antibacterial activity (growth inhibition area around a well)” value ([3]; 10 μg per well) was 133 square millimeters, the IC50 [4] was 39.3 µM and the “Antibacterial activity (growth inhibition area around a well)” value ([5]; 4 μg of compound per well) was 79 square millimeters. The “Antibacterial activity (growth inhibition area around a well)” value ([5]; 10 μg of compound per well) was 133 square millimeters, the “Antibacterial activity in the presence of rifampin (growth inhibition area around a well)” value ([6]; rifampin 0 μg/ml) was 79 square millimeters and the “Antibacterial activity in the presence of rifampin (growth inhibition area around a well)” value ([6]; rifampin 0.1 μg/ml) was 95 square millimeters. The “Antibacterial activity in the presence of rifampin (growth inhibition area around a well)” value ([6]; rifampin 1.0 μg/ml) was 104 square millimeters.
For `C[C@@H](O)[C@H]1C(=O)N2C(C(=O)O)=C(SCCN=CN)C[C@H]12` [imipenem, reference compound], the MIC ([7]; read-out: MIC of imipenem) was 24 µg/mL, the MIC ([8]; read-out: MIC of imipenem) was 0.38 µg/mL and the MIC ([9]; read-out: MIC of imipenem) was > 32 µg/mL.
With `C[C@@H](O)[C@H]1C(=O)N2C(C(=O)O)=C(S[C@@H]3CN[C@H](C(=O)N(C)C)C3)[C@H](C)[C@H]12` [meropenem, reference compound] the MIC ([7]; read-out: MIC of meropenem) was 32 µg/mL, the MIC ([8]; read-out: MIC of meropenem) was 1.5 µg/mL and the MIC ([9]; read-out: MIC of meropenem) was > 32 µg/mL.
For “octanoyl polymyxin B heptapeptide [Octanoyl PMBH, reference compound]”, the “Concentration needed to inhibit the growth of bacteria” value [10] is given as 128 µg/mL, the “Antibacterial activity (growth inhibition area around a well)” value ([5]; 4 μg of compound per well) is given as 0 square millimeters and the “Antibacterial activity (growth inhibition area around a well)” value ([5]; 10 μg of compound per well) is given as 0 square millimeters. For the same compound, the “Antibacterial activity in the presence of rifampin (growth inhibition area around a well)” value ([6]; rifampin 0 μg/ml) was 0 square millimeters, the “Antibacterial activity in the presence of rifampin (growth inhibition area around a well)” value ([6]; rifampin 0.1 μg/ml) was 0 square millimeters and the “Antibacterial activity in the presence of rifampin (growth inhibition area around a well)” value ([6]; rifampin 1.0 μg/ml) was 38 square millimeters.
